Reference: patent US20200283384A1, “ANTIBACTERIAL COMPOUNDS AND METHODS OF USE THEREOF” (Wayne State University, priority 2016, published 2020)
In brackets after ≈: the same amount, converted by molar mass. Read-outs that look alike come from different tables or passages of the source.

What was measured:
[1] = system: Methicillin-resistant S. aureus strains; S. aureus (K1902); test: MIC and SIC in 96 well microplates (plasmid curing study); assay type: cell-based, Staphylococcus aureus
Experimental: Plasmid curing activity of HN18 and HN34 was evaluated. Methicillin-resistant S. aureus strains were sub-cultured on blood agar plates to obtain isolated colonies, incubated at 35° C. in a CO2 incubator. The fresh overnight bacterial inoculum was prepared by re-suspending a few isolated colonies in a tube containing 5 ml of saline. […] The sub-inhibitory concentration (SIC) is defined as the concentration before MIC (in a serial dilution method where antibiotic concentration decreases by half from each tube to the next one).
(§1) Plasmid curing activity of HN18 and HN34 was also evaluated in S. aureus (K1902) which is known to harbor a 5 kb plasmid with a chloramphenicol resistance gene. Along with the KSA reference strain, the plasmid curing activity was repeated for SA1 and SA2 strains which are MRSA (Table 4).

[2] = system: 24 strains of S. aureus (SA1-SA24); test: Broth micro-dilution MIC against 24 strains of S. aureus; assay type: cell-based; details: for MIC: Staphylococcus aureus, read-out: Compound MIC
Experimental: Compounds were tested for their anti-bacterial activity against 56 clinical isolates including 24 clinical isolates of methicillin resistant S. aureus (MRSA) and methicillin-susceptible S. aureus (MSSA), 8 strains of Enterococcus, 8 strains of Acinetobacter baumannii, 8 strains of Klebsiella pneumoniae, and 8 strains of Pseudomonas aeruginosa using a standard broth micro-dilution method as recommended by the Clinical and Laboratory Standard Institute (CLSI, M100, s23).
HN18 HN19, and HN34 were tested by a broth micro-dilution method to determine their minimal inhibitory concentration (MIC) against 24 strains of S. aureus (SA1-SA24) (Table 2). […]. Furthermore, the results for HN18 and HN34 were consistent across four repeated experiments. […]

[3] = system: methicillin-resistant S. aureus clinical isolates (MRSA); S. aureus (K1902); test: Plasmid curing at sub-inhibitory concentration; assay type: cell-based, Staphylococcus aureus
Experimental: Plasmid curing was performed per Trevors (Trevors, 1986 Plasmid curing in bacteria. FEMS Microbiology, 32: 149-157). In brief, the clinical isolate was grown in the presence of HN18 and HN34 at the specified concentration for 18 h at 35° C. and then plated on Muller Hinton agar (MHA) plates to obtain isolated colonies. The isolated colonies were then replica plated onto MHA and MHA plates containing antibiotics. […] The percentage curing efficiency was expressed as the number of colonies with cured phenotype per 100 colonies tested. For plasmid extraction, 5 ml of an overnight culture of S. aureus strain was centrifuged and cells were subjected to 1 ml lysostaphin (20 μg/ml) for 1 hour at 35° C. prior to DNA extraction. Extraction of DNA was carried using QIAprep Spin Miniprep Kit (Qiagen) per manufacturer's instruction. DNA profile analysis was carried out by electrophoresis on 1.5% agarose gel.
The methicillin-resistant S. aureus clinical isolates (MRSA) growing in the presence of sub-inhibitory concentrations of HN18 and HN34 were taken for the evaluation for the loss of plasmids as described above. A culture control without a curing agent was also maintained in the curing experiment to estimate the rate of spontaneous loss of plasmids under these conditions. HN18 and HN34 eliminated the plasmid mediated antibiotic resistance markers with varying curing efficiencies (Table 3). HN18 cured plasmids from SA1, SA2, SA7 and SA8 at frequency in the range of 13-100%. HN34 also cured plasmids from SA1, SA2, SA7 and SA8 strains with 30%-100% curing efficiency.
as §1

[4] = Table 4, KSA (S. aureus K1902), experiment I
[5] = Table 4, KSA (S. aureus K1902), experiment II
[6] = Table 4, isolate SA1, experiment II
[7] = Table 4, isolate SA2, experiment I
[8] = Table 4, isolate SA2, experiment II
[9] = Table 3, isolate SA1, at SIC, lack of growth in presence of M, Ox (4 μg/ml)
[10] = Table 3, isolate SA2, at SIC, lack of growth in presence of M, Ox (4 μg/ml)
[11] = Table 3, isolate SA3, at SIC, lack of growth in presence of M, Ox (4 μg/ml)
[12] = Table 3, isolate SA4, at SIC, lack of growth in presence of M, Ox (4 μg/ml)
[13] = Table 3, isolate SA5, at SIC, lack of growth in presence of M, Ox (4 μg/ml)
[14] = Table 3, isolate SA6, at SIC, lack of growth in presence of M, Ox (4 μg/ml)
[15] = Table 3, isolate SA7, at SIC, lack of growth in presence of M, Ox (4 μg/ml)
[16] = Table 3, isolate SA8, at SIC, lack of growth in presence of M, Ox (4 μg/ml)

Compound `Cc1[nH]c2ccccc2c1C(c1ccc(F)c(F)c1)c1c(C)[nH]c2ccccc12` [HN34] has an SIC ([1]; Table 3, isolate SA1 (MRSA)) of 1 µg/mL, an SIC ([1]; Table 3, isolate SA2 (MRSA)) of 1 µg/mL and an SIC ([1]; Table 3, isolate SA3 (MRSA)) of 1 µg/mL. The SIC ([1]; Table 3, isolate SA4 (MRSA)) was 1 µg/mL, the SIC ([1]; Table 3, isolate SA5 (MRSA)) was 1 µg/mL and the SIC ([1]; Table 3, isolate SA6 (MRSA)) was 0.5 µg/mL. It also gave an SIC ([1]; Table 3, isolate SA7 (MRSA)) of 0.5 µg/mL, an SIC ([1]; Table 3, isolate SA8 (MRSA)) of 1 µg/mL and an MIC [1, 4] of 2 µg/mL (≈ 5.18 µM). It also gave an SIC [1, 4] of 1 µg/mL, an MIC [1, 5] of 2 µg/mL (≈ 5.18 µM) and an SIC [1, 5] of 1 µg/mL. The SIC ([1]; Table 4, isolate SA1, experiment I) was 1 µg/mL, the MIC [1, 6] was 2 µg/mL (≈ 5.18 µM) and the SIC [1, 6] was 1 µg/mL. For the same compound, the MIC [1, 7] was 2 µg/mL (≈ 5.18 µM), the SIC [1, 7] was 1 µg/mL and the MIC [1, 8] was 2 µg/mL (≈ 5.18 µM). For the same compound, the SIC [1, 8] was 1 µg/mL, the “Effect against the panel of S. aureus strains” value ([2]; 24 strains SA1-SA24, broth micro-dilution) was “effective” and the MIC ([2]; isolate SA1, experiment I) was 1 µg/mL (≈ 2.59 µM). For the same compound, the MIC ([2]; isolate SA1, experiment II) was 2 µg/mL (≈ 5.18 µM), the MIC ([2]; isolate SA1, experiment III) was 1 µg/mL (≈ 2.59 µM) and the MIC ([2]; isolate SA1, experiment IV) was 1 µg/mL (≈ 2.59 µM). The MIC ([2]; isolate SA2, experiment I) was 2 µg/mL (≈ 5.18 µM), the MIC ([2]; isolate SA2, experiment II) was 2 µg/mL (≈ 5.18 µM) and the MIC ([2]; isolate SA2, experiment III) was 1 µg/mL (≈ 2.59 µM). It also gave an MIC ([2]; isolate SA2, experiment IV) of 1 µg/mL (≈ 2.59 µM), an MIC ([2]; isolate SA3, experiment I) of 2 µg/mL (≈ 5.18 µM) and an MIC ([2]; isolate SA3, experiment II) of 2 µg/mL (≈ 5.18 µM). It also gave an MIC ([2]; isolate SA3, experiment III) of 2 µg/mL (≈ 5.18 µM), an MIC ([2]; isolate SA3, experiment IV) of 2 µg/mL (≈ 5.18 µM) and an MIC ([2]; isolate SA4, experiment I) of 2 µg/mL (≈ 5.18 µM). It also gave an MIC ([2]; isolate SA4, experiment II) of 2 µg/mL (≈ 5.18 µM), an MIC ([2]; isolate SA4, experiment III) of 2 µg/mL (≈ 5.18 µM) and an MIC ([2]; isolate SA5, experiment I) of 1 µg/mL (≈ 2.59 µM). The MIC ([2]; isolate SA5, experiment II) was 2 µg/mL (≈ 5.18 µM), the MIC ([2]; isolate SA5, experiment III) was 1 µg/mL (≈ 2.59 µM) and the MIC ([2]; isolate SA5, experiment IV) was 2 µg/mL (≈ 5.18 µM). For the same compound, the MIC ([2]; isolate SA6, experiment I) was 1 µg/mL (≈ 2.59 µM), the MIC ([2]; isolate SA6, experiment II) was 1 µg/mL (≈ 2.59 µM) and the MIC ([2]; isolate SA6, experiment III) was 1 µg/mL (≈ 2.59 µM). The MIC ([2]; isolate SA6, experiment IV) was 1 µg/mL (≈ 2.59 µM), the MIC ([2]; isolate SA7, experiment I) was 1 µg/mL (≈ 2.59 µM) and the MIC ([2]; isolate SA7, experiment II) was 1 µg/mL (≈ 2.59 µM). It also gave an MIC ([2]; isolate SA7, experiment III) of 1 µg/mL (≈ 2.59 µM), an MIC ([2]; isolate SA7, experiment IV) of 1 µg/mL (≈ 2.59 µM) and an MIC ([2]; isolate SA8, experiment I) of 2 µg/mL (≈ 5.18 µM). For the same compound, the MIC ([2]; isolate SA8, experiment II) was 2 µg/mL (≈ 5.18 µM), the MIC ([2]; isolate SA8, experiment III) was 2 µg/mL (≈ 5.18 µM) and the MIC ([2]; isolate SA8, experiment IV) was 2 µg/mL (≈ 5.18 µM). The MIC ([2]; isolate SA9, experiment I) was 0.5 µg/mL (≈ 1.29 µM), the MIC ([2]; isolate SA10, experiment I) was 1 µg/mL (≈ 2.59 µM) and the MIC ([2]; isolate SA11, experiment I) was 1 µg/mL (≈ 2.59 µM). For the same compound, the MIC ([2]; isolate SA12, experiment I) was 1 µg/mL (≈ 2.59 µM), the MIC ([2]; isolate SA13, experiment I) was 1 µg/mL (≈ 2.59 µM) and the MIC ([2]; isolate SA14, experiment I) was 0.25 µg/mL (≈ 0.647 µM). For the same compound, the MIC ([2]; isolate SA15, experiment I) was 1 µg/mL (≈ 2.59 µM), the MIC ([2]; isolate SA16, experiment I) was 1 µg/mL (≈ 2.59 µM) and the MIC ([2]; isolate SA17, experiment I) was 1 µg/mL (≈ 2.59 µM). For the same compound, the MIC ([2]; isolate SA18, experiment I) was 1 µg/mL (≈ 2.59 µM), the MIC ([2]; isolate SA19, experiment I) was 1 µg/mL (≈ 2.59 µM) and the MIC ([2]; isolate SA20, experiment I) was 2 µg/mL (≈ 5.18 µM). The MIC ([2]; isolate SA21, experiment I) was 1 µg/mL (≈ 2.59 µM), the MIC ([2]; isolate SA22, experiment I) was 1 µg/mL (≈ 2.59 µM) and the MIC ([2]; isolate SA23, experiment I) was 1 µg/mL (≈ 2.59 µM). For the same compound, the MIC ([2]; isolate SA24, experiment I) was 1 µg/mL (≈ 2.59 µM), the “Plasmid band in agarose gel of cured derivatives” value ([3]; S. aureus K1902, FIG. 3) was “absent” and the “Susceptibility of isolates after exposure to SIC” value ([3]; SA1 and SA2 to oxacillin, KSA to chloramphenicol) was “became susceptible”. For the same compound, the “Curing efficiency I” value [3, 9] was 100%, the “Curing efficiency II” value [3, 9] was 100% and the “Curing efficiency I” value [3, 10] was 100%. For the same compound, the “Curing efficiency II” value [3, 10] was 70%, the “Curing efficiency I” value [3, 11] was 0% and the “Curing efficiency II” value [3, 11] was 0%. The “Curing efficiency I” value [3, 12] was 100%, the “Curing efficiency II” value [3, 12] was 0% and the “Curing efficiency I” value [3, 13] was 0%. For the same compound, the “Curing efficiency II” value [3, 13] was 0%, the “Curing efficiency I” value [3, 14] was 0% and the “Curing efficiency II” value [3, 14] was 0%. For the same compound, the “Curing efficiency I” value [3, 15] was 50%, the “Curing efficiency II” value [3, 15] was 30% and the “Curing efficiency I” value [3, 16] was 40%. For the same compound, the “Curing efficiency II” value [3, 16] was 63.33%, the “Curing efficiency (%)” value ([3]; Table 4, KSA (S. aureus K1902), experiment I, lack of growth in presence of Cm (10 μg/ml)) was 33.3% and the “Curing efficiency (%)” value ([3]; Table 4, KSA (S. aureus K1902), experiment II, lack of growth in presence of Cm (10 μg/ml)) was 50%. For the same compound, the “Curing efficiency (%)” value ([3]; Table 4, isolate SA1, experiment I, lack of growth in presence of M, Ox (4 μg/ml)) was 100% and the “Curing efficiency (%)” value ([3]; Table 4, isolate SA2, experiment I, lack of growth in presence of M, Ox (4 μg/ml)) was 96.6%.
